Source: patent US20250288704A1, “CXCR4-LIGANDS FOR DIAGNOSTIC AND THERAPEUTIC USE AND PRECURSORS THEREOF” (priority 2021, published 2025)
Positions of bridges follow the written chain, without caps; N, C: chain ends. Non-standard residues stand in square brackets, D forms with d. Residues, ends and D or L forms follow the SMILES beside them. Groups on a side chain read outwards from the residue. Chains are numbered I, II in the order given. *: point of attachment. X9 = NCCNCC(CNCCN)C(=O)NC[C@@H](NC(=O)CC[C@@H](NC(=O)N[C@H](CCC(=O)O)C(=O)O)C(=O)O)C(=O)*; X2 = OC[C@H]1O[C@@H](O[C@H]2[C@H](O)[C@@H](O)[C@H](*)O[C@@H]2CO)[C@H](O)[C@@H](O)[C@H]1O; X8 = NCCNCC(CNCCN)C(=O)NC[C@@H](NC(=O)CCC(NC(=O)N[C@H](CCC(=O)O)C(=O)O)C(=O)O)C(=O)*; X3 = OCC1OC(OC2C(CO)OC(*)C(O)C2O)C(O)C(O)C1O; 2Nal = N[C@@H](Cc1ccc2ccccc2c1)C(=O)O; dCit = NC(=O)NCCC[C@@H](N)C(=O)O; dNMeOrn = CN[C@H](CCCN)C(=O)O; d(hCys) = N[C@H](CCS)C(=O)O; Mercaptoacetyl = O=C(CS)*; X4 = OCC1OC(*)C(O)C(O)C1O; 4Abz = Nc1ccc(C(=O)O)cc1; dDap = NC[C@@H](N)C(=O)O; Ahx = NCCCCCC(=O)O

Legend:
[1] = system: CXCR4-expressing Chem_1 cells; test: Determination of internalization, dual tracer with 125I-Fc-131; assay type: cell-based; conditions: for Cell-bound [%] / Internalized [%]: of total cellular activity
Outline: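 Chem_1 cells grown in DMEM-F12 with 10% FBS at 37 °C; wells (n=3 per time point) received medium or AMD3100 (1 mM stock) to block receptors. Unbound, surface-bound and NaOH-lysed internalized fractions were γ-counted; data corrected for non-specific internalization and referred to standard ligand specific internalization.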

[2] = Octanol/PBS partition coefficient (logD7.4); assay type: physicochemical; conditions: n-octanol/PBS pH 7.4, radiolabeled compound
Procedure: The tubes were vortexed at maximum speed for 3 min to ensure equilibrium before centrifugation at 15.000×g for 5 min on a Biofuge 15 from Heraeus Holding GmbH (Osterode, Germany). An aliquot of 100 μL of each fraction was measured in the γ-counter and the log D7.4 calculated as follows: […]

[3] = Biodistribution in Jurkat tumor-bearing CB-17 SCID mice; assay type: in vivo; conditions: female, CB-17 SCID, mouse, in vivo, iv, total radioactivity
Outline: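 CB17-SCID mice bore subcutaneous Jurkat xenografts (2-3×10^7 cells in Matrigel, shoulder), used at 5-8 mm tumor diameter. About 0.5-20 MBq (0.02-0.20 nmol) of 125I-, 177Lu-, 99mTc-, 18F- or 68Ga-labeled ligand given by tail vein; organs weighed and γ-counted after set times.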

[4] = target: CXCR4 (Homo sapiens, UniProt P61073); test: Determination of inverse IC50 (invIC50): radiolabeled peptide displaced by Fc-131 on Jurkat cells
Chain of CXCR4 (P61073 whole entry): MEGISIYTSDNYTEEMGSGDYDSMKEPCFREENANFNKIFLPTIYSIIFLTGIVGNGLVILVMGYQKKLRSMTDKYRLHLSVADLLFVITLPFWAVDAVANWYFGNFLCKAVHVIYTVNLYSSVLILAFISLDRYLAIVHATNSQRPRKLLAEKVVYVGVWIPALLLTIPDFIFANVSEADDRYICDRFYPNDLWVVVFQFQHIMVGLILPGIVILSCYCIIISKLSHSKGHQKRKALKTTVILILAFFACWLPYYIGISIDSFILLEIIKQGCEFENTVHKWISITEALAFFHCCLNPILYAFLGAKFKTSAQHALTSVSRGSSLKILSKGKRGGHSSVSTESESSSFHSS
Procedure: For in vitro experiments, cells were counted in a hemocytometer using trypan blue as contrast agent. The cell suspension was centrifuged, and the pellet resuspended in HBSS (+1 wt % BSA) to a concentration of 2 mio cells/mL. 8×3 polystyrene tubes were loaded with 25 μL of the standard ligand ^125I-Fc-131 (see 4.1, 1.00 nM in HBSS) and 25 μL of the ligand to investigate in the respective concentration (10^−4-10^−10 M, n=3 for each concentration). 200 μL of cell suspension (400.000 cells per well) were added to obtain a final peptide concentration range of 10^−5-10^−11 M. The tubes were cooled for 2 h at 8° C. to prevent internalization. The experiment was stopped by removal of the supernatant. 200 μL HBSS were added onto the cells, the suspension centrifuged, and the supernatant pooled with the respective first fractions. This step was repeated once more before the tubes containing the supernatants and the ones containing the cell pellets were subjected to activity measurement in the γ-counter.
For the determination of inverse IC50 (invIC50) values the protocol for the determination of regular IC50 values was resumed with minor changes. The peptide under investigation was radioactively labeled and a stock solution was prepared in HBSS (2.00 nM). A concentration gradient of the standard ligand Fc-131 was prepared in HBSS (10^−4-10^−10 M). A cell tube was then containing 25 μL of the radioactive peptide solution, 25 μL of the respective Fc-131 solution and 200 μL cell suspension (400.000 cells). The experiment was conducted as described above.

C[C@@H](NC(=O)[C@@H](CCCNC(=N)N)NC(=O)[C@@H](CN)NC(=O)[C@@H](CCSC1OC(CO)C(O)C(O)C1O)NC(=O)[C@@H](CCSC1OC(CO)C(O)C(O)C1O)NC(=O)[C@@H](CCSC1OC(CO)C(O)C(O)C1O)NC(=O)CS)C(=O)Nc1ccc(C(=O)NCCC[C@@H]2C(=O)N[C@@H](CCCNC(=N)N)C(=O)N[C@@H](Cc3ccc4ccccc4c3)C(=O)NCC(=O)N[C@H](Cc3ccc(O)cc3)C(=O)N2C)cc1 (stereo partly drawn) [Tc-CXCR4-9] (I: Mercaptoacetyl-[d(hCys)](X4)[d(hCys)](X4)[d(hCys)](X4)[dDap][dR][dA][4Abz] / II: cyclo([2Nal]G[dY][dNMeOrn]R); amide I:C-II:4)
Internalized in relation to 125I-Fc-131 [%] ([1]; 30 min): 86.4 ± 9.62% | Cell-bound [%] ([1]; 30 min): 3.69 ± 0.56% | Internalized [%] ([1]; 30 min): 7.00 ± 0.74% | Internalization [% Fc-131] ([1]; 90 min): 103 (90 min) % Fc-131 | Internalized in relation to 125I-Fc-131 [%] ([1]; 90 min): 103 ± 6.56% | Cell-bound [%] ([1]; 90 min): 3.69 ± 0.49% | Internalized [%] ([1]; 90 min): 12.5 ± 0.67% | logD7.4 [2]: −2.56 ± 0.03 (6) | tissue uptake at 1 h ([3]; % iD/g Blood): 1.42 %ID/g | tissue uptake at 1 h ([3]; % iD/g Bone): 0.47 %ID/g | tissue uptake at 1 h ([3]; % iD/g Heart): 0.87 %ID/g | tissue uptake at 1 h ([3]; % iD/g Intestine): 1.5 %ID/g | tissue uptake at 1 h ([3]; % iD/g Kidney): 14.8 %ID/g | tissue uptake at 1 h ([3]; % iD/g Liver): 3.97 %ID/g | tissue uptake at 1 h ([3]; % iD/g Lung): 2.4 %ID/g | tissue uptake at 1 h ([3]; % iD/g Muscle): 0.24 %ID/g | tissue uptake at 1 h ([3]; % iD/g Pancreas): 0.5 %ID/g | tissue uptake at 1 h ([3]; % iD/g Spleen): 1.24 %ID/g | tissue uptake at 1 h ([3]; % iD/g Stomach): 3.51 %ID/g | tissue uptake at 1 h ([3]; % iD/g Tumor): 5.92 %ID/g | IC50 [4]: 3.5 ± 0.65 nM

C[C@@H](NC(=O)[C@@H](CCCNC(=N)N)NC(=O)[C@@H](CN)NC(=O)[C@@H](CO)NC(=O)[C@@H](CCS[C@@H]1O[C@H](CO)[C@@H](O[C@@H]2O[C@H](CO)[C@H](O)[C@H](O)[C@H]2O)[C@H](O)[C@H]1O)NC(=O)[C@@H](CO)NC(=O)CS)C(=O)Nc1ccc(C(=O)NCCC[C@@H]2C(=O)N[C@@H](CCCNC(=N)N)C(=O)N[C@@H](Cc3ccc4ccccc4c3)C(=O)NCC(=O)N[C@H](Cc3ccc(O)cc3)C(=O)N2C)cc1 [Tc-CXCR4-11] (I: Mercaptoacetyl-[dS][d(hCys)](X2)[dS][dDap][dR][dA][4Abz] / II: cyclo([2Nal]G[dY][dNMeOrn]R); amide I:C-II:4)
Internalized in relation to 125I-Fc-131 [%] ([1]; 15 min): 71.9 ± 11.4% | Cell-bound [%] ([1]; 15 min): 1.79 ± 0.36% | Internalized [%] ([1]; 15 min): 3.16 ± 0.46% | Internalized in relation to 125I-Fc-131 [%] ([1]; 30 min): 178 ± 26.2% | Cell-bound [%] ([1]; 30 min): 3.74 ± 0.33% | Internalized [%] ([1]; 30 min): 6.98 ± 0.78% | Internalized in relation to 125I-Fc-131 [%] ([1]; 60 min): 145 ± 19.8% | Cell-bound [%] ([1]; 60 min): 7.02 ± 0.06% | Internalized [%] ([1]; 60 min): 7.10 ± 0.84% | Internalization [% Fc-131] ([1]; 120 min): 221 (120 min) % Fc-131 | Internalized in relation to 125I-Fc-131 [%] ([1]; 120 min): 221 ± 23.4% | Cell-bound [%] ([1]; 120 min): 4.25 ± 0.67% | Internalized [%] ([1]; 120 min): 10.8 ± 1.13% | logD7.4 [2]: −2.94 ± 0.02 (8) | tissue uptake at 1 h ([3]; % iD/g Blood): 1.36 %ID/g | tissue uptake at 1 h ([3]; % iD/g Bone): 0.71 %ID/g | tissue uptake at 1 h ([3]; % iD/g Heart): 0.95 %ID/g | tissue uptake at 1 h ([3]; % iD/g Intestine): 0.72 %ID/g | tissue uptake at 1 h ([3]; % iD/g Kidney): 29 %ID/g | tissue uptake at 1 h ([3]; % iD/g Liver): 5.94 %ID/g | tissue uptake at 1 h ([3]; % iD/g Lung): 2.85 %ID/g | tissue uptake at 1 h ([3]; % iD/g Muscle): 0.28 %ID/g | tissue uptake at 1 h ([3]; % iD/g Pancreas): 0.48 %ID/g | tissue uptake at 1 h ([3]; % iD/g Spleen): 2.31 %ID/g | tissue uptake at 1 h ([3]; % iD/g Stomach): 1.16 %ID/g | tissue uptake at 1 h ([3]; % iD/g Tumor): 6.71 %ID/g | IC50 [4]: 2.05 ± 0.95 nM

C[C@@H](NC(=O)[C@@H](CCCNC(=N)N)NC(=O)[C@@H](CN)NC(=O)[C@@H](CCCNC(N)=O)NC(=O)[C@@H](CCSC1OC(CO)C(OC2OC(CO)C(O)C(O)C2O)C(O)C1O)NC(=O)[C@@H](CCCNC(N)=O)NC(=O)CS)C(=O)Nc1ccc(C(=O)NCCC[C@@H]2C(=O)N[C@@H](CCCNC(=N)N)C(=O)N[C@@H](Cc3ccc4ccccc4c3)C(=O)NCC(=O)N[C@H](Cc3ccc(O)cc3)C(=O)N2C)cc1 (stereo partly drawn) [Tc-CXCR4-12] (I: Mercaptoacetyl-[dCit][d(hCys)](X3)[dCit][dDap][dR][dA][4Abz] / II: cyclo([2Nal]G[dY][dNMeOrn]R); amide I:C-II:4)
Internalized in relation to 125I-Fc-131 [%] ([1]; 15 min): 192 ± 38.1% | Cell-bound [%] ([1]; 15 min): 3.77 ± 0.83% | Internalized [%] ([1]; 15 min): 3.79 ± 0.69% | Internalized in relation to 125I-Fc-131 [%] ([1]; 30 min): 284 ± 92.3% | Cell-bound [%] ([1]; 30 min): 8.56 ± 0.66% | Internalized [%] ([1]; 30 min): 9.64 ± 1.31% | Internalized in relation to 125I-Fc-131 [%] ([1]; 60 min): 395 ± 72.2% | Cell-bound [%] ([1]; 60 min): 14.1 ± 0.71% | Internalized [%] ([1]; 60 min): 11.6 ± 2.01% | Internalization [% Fc-131] ([1]; 120 min): 473 (120 min) % Fc-131 | Internalized in relation to 125I-Fc-131 [%] ([1]; 120 min): 473 ± 41.9% | Cell-bound [%] ([1]; 120 min): 7.42 ± 2.12% | Internalized [%] ([1]; 120 min): 18.1 ± 0.85% | logD7.4 [2]: −2.92 ± 0.06 (8) | tissue uptake at 1 h ([3]; % iD/g Blood): 1.74 %ID/g | tissue uptake at 1 h ([3]; % iD/g Bone): 0.95 %ID/g | tissue uptake at 1 h ([3]; % iD/g Heart): 1.14 %ID/g | tissue uptake at 1 h ([3]; % iD/g Intestine): 1.25 %ID/g | tissue uptake at 1 h ([3]; % iD/g Kidney): 35 %ID/g | tissue uptake at 1 h ([3]; % iD/g Liver): 11 %ID/g | tissue uptake at 1 h ([3]; % iD/g Lung): 3.96 %ID/g | tissue uptake at 1 h ([3]; % iD/g Muscle): 0.34 %ID/g | tissue uptake at 1 h ([3]; % iD/g Pancreas): 0.8 %ID/g | tissue uptake at 1 h ([3]; % iD/g Spleen): 4.72 %ID/g | tissue uptake at 1 h ([3]; % iD/g Stomach): 2.03 %ID/g | tissue uptake at 1 h ([3]; % iD/g Tumor): 7.39 %ID/g | IC50 [4]: 4.82 ± 1.36 nM

C[C@@H](NC(=O)[C@@H](CCCNC(=N)N)NC(=O)[C@@H](CN)NC(=O)[C@@H](CNC(=O)C(CNCCN)CNCCN)NC(=O)CCC(NC(=O)N[C@H](CCC(=O)O)C(=O)O)C(=O)O)C(=O)Nc1ccc(C(=O)NCCC[C@@H]2C(=O)N[C@@H](CCCNC(=N)N)C(=O)N[C@@H](Cc3ccc4ccccc4c3)C(=O)NCC(=O)N[C@H](Cc3ccc(O)cc3)C(=O)N2C)cc1 (stereo partly drawn) [Tc-CXCR4-15] (cyclo([2Nal]G[dY][dNMeOrn]([4Abz-dA-dR-dDap-X8])R))
Internalized in relation to 125I-Fc-131 [%] ([1]; 30 min): 214 ± 11.7% | Cell-bound [%] ([1]; 30 min): 4.35 ± 0.16% | Internalized [%] ([1]; 30 min): 12.6 ± 0.34% | Internalization [% Fc-131] ([1]; 90 min): 232 (90 min) % Fc-131 | Internalized in relation to 125I-Fc-131 [%] ([1]; 90 min): 232 ± 15.3% | Cell-bound [%] ([1]; 90 min): 3.42 ± 0.27% | Internalized [%] ([1]; 90 min): 17.9 ± 1.06% | logD7.4 [2]: −3.60 ± 0.02 (8) | IC50 [4]: 3.69 ± 1.32 nM

C[C@@H](NC(=O)[C@@H](CCCNC(=N)N)NC(=O)[C@@H](CN)NC(=O)CCCCCNC(=O)[C@@H](CNC(=O)C(CNCCN)CNCCN)NC(=O)CC[C@@H](NC(=O)N[C@H](CCC(=O)O)C(=O)O)C(=O)O)C(=O)Nc1ccc(C(=O)NCCC[C@@H]2C(=O)N[C@@H](CCCNC(=N)N)C(=O)N[C@@H](Cc3ccc4ccccc4c3)C(=O)NCC(=O)N[C@H](Cc3ccc(O)cc3)C(=O)N2C)cc1 [Tc-CXCR4-16] (cyclo([2Nal]G[dY][dNMeOrn]([4Abz-dA-dR-dDap-Ahx-X9])R))
Internalized in relation to 125I-Fc-131 [%] ([1]; 30 min): 230 ± 10.7% | Cell-bound [%] ([1]; 30 min): 3.36 ± 0.45% | Internalized [%] ([1]; 30 min): 15.0 ± 0.31% | Internalization [% Fc-131] ([1]; 90 min): 284 (90 min) % Fc-131 | Internalized in relation to 125I-Fc-131 [%] ([1]; 90 min): 284 ± 10.4% | Cell-bound [%] ([1]; 90 min): 3.53 ± 0.21% | Internalized [%] ([1]; 90 min): 19.8 ± 0.15% | logD7.4 [2]: −2.70 ± 0.04 (8) | IC50 [4]: 6.08 ± 1.03 nM

CPCR4-HYNIC [reference compound]
Internalization [% Fc-131] ([1]; 90 min): 29 (90 min) % Fc-131 | logD7.4 [2]: −1.84 ± 0.01 (8) | invIC50 [nM] ([4]; radiolabeled compound displaced by Fc-131, Jurkat cells): No
